Results as given in ChEMBL document CHEMBL4673278, “Identification and Characterization of a Peptide from the Stony Coral Heliofungia actiniformis” (J Nat Prod, 2020).
The source made the active and inactive calls. The calls are words filed in the database; no cut-off is given here. Bridge positions count the residues as written; N and C are the ends. Peptide text beside a SMILES is read from it.

How the values were obtained:
[1] = target: T1, Albumin (Homo sapiens, UniProt P02768); experiment: Binding affinity to human serum albumin assessed as remaining parent compound at 3 mM measured up to 24 hrs by RP-HPLC analysis; format: ADME, cell-free; conditions: read-out: Activity
T1 sequence (P02768 whole entry): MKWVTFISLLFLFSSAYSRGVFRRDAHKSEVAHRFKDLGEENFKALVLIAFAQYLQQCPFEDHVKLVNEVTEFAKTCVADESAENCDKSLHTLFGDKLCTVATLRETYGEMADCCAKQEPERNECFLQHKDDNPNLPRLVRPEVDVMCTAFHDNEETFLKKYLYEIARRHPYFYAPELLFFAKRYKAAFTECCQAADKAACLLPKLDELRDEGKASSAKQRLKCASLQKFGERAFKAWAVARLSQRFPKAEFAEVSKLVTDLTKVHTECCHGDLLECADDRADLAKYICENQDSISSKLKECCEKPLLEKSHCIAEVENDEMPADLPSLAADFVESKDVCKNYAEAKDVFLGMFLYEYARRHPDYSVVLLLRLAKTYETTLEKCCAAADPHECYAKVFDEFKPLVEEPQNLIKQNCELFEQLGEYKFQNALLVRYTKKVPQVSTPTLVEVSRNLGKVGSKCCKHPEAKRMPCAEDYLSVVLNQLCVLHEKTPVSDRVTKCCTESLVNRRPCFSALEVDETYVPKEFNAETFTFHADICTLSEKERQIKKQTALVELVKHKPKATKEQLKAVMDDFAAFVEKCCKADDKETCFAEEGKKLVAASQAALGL

[2] = system: Streptococcus pneumoniae; experiment: Antibacterial activity against Streptococcus pneumoniae assessed as reduction in microbial growth at 0.024 to 0.113 mg/ml after 270 mins by microdilution assay; format: functional, organism-based; conditions: dose 0.024-0.113 mg/ml
[3] = system: Streptococcus pyogenes; experiment: Antibacterial activity against Streptococcus pyogenes assessed as reduction in microbial growth at 0.024 to 0.113 mg/ml after 270 mins by microdilution assay; format: functional, organism-based; conditions: dose 0.024-0.113 mg/ml
[4] = system: Vibrio mediterranei; experiment: Antibacterial activity against Vibrio shilonii assessed as reduction in microbial growth at 0.024 to 0.113 mg/ml after 270 mins by microdilution assay; format: functional; conditions: dose 0.024-0.113 mg/ml
[5] = system: PBMC; experiment: Antiinflammatory activity against LPS-induced human PBMC cells assessed as reduction in TNF-alpha expression at 7.5 to 100 ug/ml by ELISA; format: functional, cell-based; conditions: dose 7.5-100 µg/ml
[6] = system: Staphylococcus aureus; experiment: Antibacterial activity against methicillin-resistant Staphylococcus aureus assessed as reduction in microbial growth at 0.024 to 0.113 mg/ml after 270 mins by microdilution assay; format: functional, organism-based; conditions: dose 0.024-0.113 mg/ml
[7] = system: Klebsiella pneumoniae; experiment: Antibacterial activity against Klebsiella pneumoniae assessed as reduction in microbial growth at 0.024 to 0.113 mg/ml after 270 mins by microdilution assay; format: functional, organism-based; conditions: dose 0.024-0.113 mg/ml
[8] = system: Pseudoalteromonas shioyasakiensis; experiment: Antibacterial activity against Pseudoalteromonas […] assessed as reduction in microbial growth at 0.024 to 0.113 mg/ml after 270 mins by microdilution assay; format: functional; conditions: dose 0.024-0.113 mg/ml
[9] = target: T1, Albumin; experiment: Binding affinity to albumin (unknown origin) at 3 mM measured up to 24 hrs by RP-HPLC analysis; format: ADME, cell-free; conditions: serum, 3000 µM
[10] = system: Tenacibaculum skagerrakense; experiment: Antibacterial activity against Tenacibaculum skagerrakense assessed as reduction in microbial growth at 0.024 to 0.113 mg/ml after 270 mins by microdilution assay; format: functional; conditions: dose 0.024-0.113 mg/ml
[11] = system: Enterococcus faecalis; experiment: Antibacterial activity against Enterococcus faecalis assessed as reduction in microbial growth at 0.024 to 0.113 mg/ml after 270 mins by microdilution assay; format: functional, organism-based; conditions: dose 0.024-0.113 mg/ml
[12] = Cytotoxicity against human PBMC cells assessed as reduction in cell viability at 5 to 50 ug/ml measured up to 48 hrs by CellTox Green assay; format: cell-based; conditions: dose 5-50 µg/ml
[13] = system: Vibrio coralliilyticus; experiment: Antibacterial activity against Vibrio coralliilyticus assessed as reduction in microbial growth at 0.024 to 0.113 mg/ml after 270 mins by microdilution assay; format: functional; conditions: dose 0.024-0.113 mg/ml
[14] = system: Pseudomonas aeruginosa; experiment: Antibacterial activity against Pseudomonas aeruginosa assessed as reduction in microbial growth at 0.024 to 0.113 mg/ml after 270 mins by microdilution assay; format: functional, organism-based; conditions: dose 0.024-0.113 mg/ml
[15] = system: Vibrio harveyi; experiment: Antibacterial activity against Vibrio harveyi assessed as reduction in microbial growth at 0.024 to 0.113 mg/ml after 270 mins by microdilution assay; format: functional, organism-based; conditions: dose 0.024-0.113 mg/ml
[16] = system: Alteromonas macleodii; experiment: Antibacterial activity against Alteromonas macleodii assessed as reduction in microbial growth at 0.024 to 0.113 mg/ml after 270 mins by microdilution assay; format: functional; conditions: dose 0.024-0.113 mg/ml
[17] = system: Escherichia coli; experiment: Antibacterial activity against Escherichia coli assessed as reduction in microbial growth at 0.024 to 0.113 mg/ml after 270 mins by microdilution assay; format: functional, organism-based; conditions: dose 0.024-0.113 mg/ml
[18] = system: Serratia marcescens; experiment: Antibacterial activity against Serratia marcescens assessed as reduction in microbial growth at 0.024 to 0.113 mg/ml after 270 mins by microdilution assay; format: functional, organism-based; conditions: dose 0.024-0.113 mg/ml

| SMILES | remaining at 24 h, 3000 µM [1] | Activity [2] | Activity [3] | Activity [4] | Activity [5] | Activity [6] | Activity [7] | Activity [8] | Activity [9] | Activity [10] | Activity [11] | Activity [12] | Activity [13] | Activity [14] | Activity [15] | Activity [16] | Activity [17] | Activity [18] |
| --- | --- | --- | --- | --- | --- | --- | --- | --- | --- | --- | --- | --- | --- | --- | --- | --- | --- | --- |
| CC[C@H](C)[C@H](NC(=O)[C@@H](NC(=O)[C@@H](N)Cc1ccccc1)[C@H](C)O)C(=O)N[C@@H](Cc1ccc(O)cc1)C(=O)N1CCC[C@H]1C(=O)NCC(=O)N[C@H]1CSSC[C@@H](C(=O)O)NC(=O)[C@H](Cc2ccccc2)NC(=O)[C@H](CC(C)C)NC(=O)CNC(=O)[C@H](Cc2c[nH]cn2)NC1=O | 85% | – | – | – | – | – | – | – | – | – | – | – | – | – | – | – | – | – |
| CC[C@H](C)[C@@H]1NC(=O)[C@H](CC(C)C)NC(=O)CNC(=O)[C@H](Cc2ccccc2)NC(=O)[C@@H]2CCCN2C(=O)[C@H]([C@@H](C)O)NC(=O)[C@H](Cc2ccc(O)cc2)NC(=O)[C@H](Cc2c[nH]cn2)NC(=O)[C@@H](NC(=O)CN)CSSC[C@@H](C(=O)N[C@@H](Cc2ccccc2)C(=O)O)NC1=O (H-GCHYTPFGLICF-OH; disulfide 2-11) | 3% | inactive | Active | inactive | Active | Active | inactive | inactive | Active | inactive | inactive | Non-Toxic | inactive | inactive | inactive | inactive | inactive | inactive |
